Assay results taken from patent US20240034753A1, “THERAPEUTIC PEPTIDES” (COHBAR, INC., priority 2020, published 2024).

Experiments:
3T3-L1 Mouse Adipocytes = test: Free fatty acid levels in cultured mouse adipocytes stimulated with isoproterenol; format: cell-based; conditions: insulin 100 nM, 3 hours with 1 nM isoproterenol
Procedure: The effect of the peptides on fatty acid metabolism can be assessed using an assay of free fatty acid levels in cultured cells such as mouse adipocytes. Peptides were initially prepared as 10 mM stock in DMSO and used at a final concentration of 10 μM (0.1% DMSO). […] Mouse 3T3-L1 cells purchased from ZenBio were seeded at 3,000 cells per well in 96-well plates in Pre-adipocyte Medium (Zen-Bio) and grown to confluence at 37° C. in a humidified atmosphere of 5% CO2/95% air. Two days after confluence, cells were placed in Adipocyte Differentiation Medium (Zen-Bio) and cultured for three additional days at 37° C. in a humidified atmosphere of 5% CO2/95% air. The culture media was then replaced with Adipocyte Maintenance Medium (Zen-Bio) and the cells maintained for an additional 9-12 days at 37° C. in a humidified atmosphere of 5% CO2/95% air with partial medium replacement every other day. Following 12-15 days of differentiation, test peptides were added at a final concentration of 10 μM in 0.1% DMSO and incubated for 20-22 hours in Adipocyte Maintenance Medium at 37° C. in a humidified atmosphere of 5% CO2/95% air. After 20-22 hours, 1 nM isoproterenol was added to all wells except untreated controls and test peptides were replenished. Insulin at 100 nM was added to control wells. Cells were incubated for 3 hours in Assay Buffer (Zen-Bio) at 37° C. in a humidified atmosphere of 5% CO2/95% air. Free fatty acid concentrations in the media were determined using a Free Fatty Acid Assay kit (Zen-Bio) according to the manufacturer's instructions using a Cytation 3 plate reader at 540 nm (BioTek, Winooski, VT). Absorbance values were corrected for untreated background and expressed relative to isoproterenol treated cells. Treatment with isoproterenol (1 nM) alone was used as the free fatty acid level stimulatory control. The relative standard deviation of the isoproterenol control was <10%. […] Free fatty acid levels for insulin (100 nM) treatment were <5% of the isoproterenol control value.

C2C12 Mouse Myoblasts = test: Glucose utilization (glucose remaining in medium); format: cell-based; conditions: metformin 1 mM, 18-22 hours
Procedure: The effect of the peptides on glucose metabolism can be assessed using an assay of glucose utilization in cultured cells such as mouse myoblasts. Peptides were initially prepared as 10 mM stock in DMSO and used at a final concentration of 10 μM (0.1% DMSO). C2C12 mouse myoblast cell line was purchased from American Type Culture Collection (Manassas, VA). C2C12 cultures were maintained at 37° C. in a humidified atmosphere of 5% CO2/95% air with medium changes every second day. C2C12 cells were grown in DMEM (1 g/L glucose) supplemented with 10% FBS with 100 IU/ml penicillin and 100 μg/ml streptomycin. C2C12 cells were seeded at 7,000 cells per well on 96-well plates and cultured to confluence. Once the cell reached confluence the media was changed to DMEM (1 g/L glucose) supplemented with 2% HS with 100 IU/ml penicillin and 100 μg/ml streptomycin and maintained at 37° C. in a humidified atmosphere of 5% CO2/95% air. 5 days post-induction of differentiation fresh DMEM (1 g/L glucose) supplemented with 2% HS with 100 IU/ml penicillin and 100 μg/ml streptomycin was added to cultures. Cells were maintained at 37° C. in a humidified atmosphere of 5% CO2 and 95% air for 5 hours. After 5 hours test peptides at 10 μM or controls (0.5 mM or 1 mM metformin in 1% DMSO) prepared in fresh differentiation medium were added to cells and the cultures were maintained at 37° C. in a humidified atmosphere of 5% CO2/95% air for 18-22 hours. At the end of the incubation culture media was removed from the cells and the remaining glucose concentration was measured using a Glucose Assay kit (Abcam) according to the manufacturer's instructions, using a Cytation 3 plate reader at 570 nm (BioTek, Winooski, VT). Glucose concentrations in the medium were calculated relative to 0.1% DMSO treated control cells. The relative standard deviation of the result for the 0.1% DMSO treated control was <20%. Metformin was used as a positive control for reduction of glucose levels (increased glucose utilization glucose levels for treatment with metformin (1 mM) treatment were <20% of the 0.1% DMSO treated control value. The results are reported in Table 11.

[1] = tested on: SH-SY5Y Neuroblastoma Cells; test: ATP levels (CellTiter-Glo); format: cell-based, human; conditions: staurosporine 1 μM, 18-20 hours
Procedure: The effect of the peptides on cellular metabolism can be assessed using an assay of ATP levels in cultured cells such as human neuroblastoma cells. Peptides were initially prepared as 10 mM stock in DMSO and used at a final concentration of 10 μM (0.1% DMSO). […] CellTiter-Glo® Assay kit was purchased from Promega. SH-SY5Y human bone marrow neuroblastoma cell line was purchased from American Type Culture Collection (Manassas, VA) and licensed from Memorial Sloan-Kettering Cancer Center (New York, NY). SH-SY5Y cells were grown in DMEM/F12 medium supplemented with 10% FBS with 100 IU/ml penicillin and 100 μg/ml streptomycin. Cultures were maintained at 37° C. in a humidified atmosphere of 5% CO2/95% air. SH-SY5Y cells were seeded at 30,000 cells per well on 96-well plates. […] ATP levels were determined using a CellTiter-Glo Assay kit (Promega) according to the manufacturer's instructions. Luminescence for each sample well on the plate was measured using a Cytation 3 plate reader (BioTek, Winooski, VT). Activity was calculated relative to 0.1% DMSO treated control. The relative standard deviation of the result for the 0.1% DMSO treated control was <5%.

[2] = PrestoBlue cell viability assay; format: cell-based; conditions: human; read-out: Cell viability, % of background corrected DMSO control value
Procedure: The effect of the peptides on cell viability can be assessed in cultured cells using suitable assay of viability such as the PrestoBlue® assay (Thermo Fisher Scientific, Waltham, MA). Peptides were initially prepared as 10 mM stock in DMSO and tested at a final concentration of 10 μM (0.1% DMSO). […] PrestoBlue Assay Reagent was purchased from Thermo Fisher Scientific. A172 human brain glioblastoma cell line was purchased from American Type Culture Collection (Manassas, VA). A172 cells were grown in DMEM supplemented with 10% FBS with 100 IU/ml penicillin and 100 μg/ml streptomycin. Cultures were maintained at 37° C. in a humidified atmosphere of 5% CO2/95% air. A172 cells were seeded at 8,000 cells per well on 96-well plates. […] Cell viability was determined using a PrestoBlue Assay reagent […] according to the manufacturer's instructions. Absorption for each sample well on the plate was measured using a Cytation 3 plate reader at 560 nm and 590 nm (BioTek, Winooski, VT). Activity was calculated relative to 0.1% DMSO untreated control. Treatment with 0.1% DMSO alone was used as the cell viability activity control. The relative standard deviation of the DMSO control was <5%.

Compound: Insulin [reference compound]
- Free fatty acid levels, % of the isoproterenol control value (3T3-L1 Mouse Adipocytes): < 5%

Compound: CN(C)C(=N)N=C(N)N [Metformin, reference compound]
- Glucose levels, % of the 0.1% DMSO treated control value (C2C12 Mouse Myoblasts): < 20%

Compound: CN[C@@H]1C[C@H]2O[C@@](C)([C@@H]1OC)n1c3ccccc3c3c4c(c5c6ccccc6n2c5c31)C(=O)NC4 [Staurosporine, reference compound]
- ATP levels, % of the 0.1% DMSO treated control value [1]: < 5%
- viability at 1 µM [2]: < 75%
